Measured values as given in the METLIN SMRT retention time set (Domingo-Almenara et al. 2019).

assay: gradient 5% acetonitrile 3 min, to 50% in 2 min, to 85% in 15 min, held 3 min, 100 µL/min; conditions: column: Zorbax Extend-C18 2.1 x 50 mm; eluents: water / acetonitrile, 0.1% formic acid
Procedure, shortened: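 Retention times come from adduct peaks that were picked computationally and then checked by hand. The standards, pure and pooled in mixtures of ~100 molecules, were run on a Zorbax Extend-C18 column (2.1 × 50 mm, 1.8 μm) at 100 μL/min with water and acetonitrile, each with 0.1% formic acid. Detection was by quadrupole time-of-flight mass spectrometry in positive and negative ionization mode, with a dead volume of 40 μL and a dwell volume of 900 μL.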

SMILES | RP-LC retention time [s]
COc1ccc(-c2ncc3c(n2)CCN(C(=O)Nc2cccc(C)c2C)C3)cc1 | 894
COC(=O)c1c(C)c(C(=O)C(C)N(Cc2ccc(F)cc2)C(=O)C(C)C)c(C)n1C (stereo unspecified) | 990
CC(C)CNC(=O)N1CC(n2cc(C(=O)N3CCOCC3)nn2)C1 | 607
CCCNC(=O)CCc1nc2ccccc2n(CC(=O)Nc2ccc(OC)c(OC)c2)c1=O | 1110
COc1ccccc1NC(=O)CN1C(=O)NC2(CCC(C)CC2)C1=O (stereo unspecified) | 803
CCCCN1CC(=O)N(c2cccc(Cl)c2)[C@@H]2CS(=O)(=O)C[C@@H]21 | 790
COCCN1CC2(CCN(S(=O)(=O)c3cccc(Cl)c3)CC2)C1c1ccncc1 (stereo unspecified) | 631
COC(=O)Nc1nc2ccc(C(=O)c3ccc(F)cc3)cc2[nH]1 | 864
O=C(Nc1nccs1)C1CCN(C(=O)c2ccc[nH]c2=O)CC1 | 558
CCNC(=O)N(CC(=O)N1CCc2sccc2C1COc1ccc(C)cc1)CC1CC1 (stereo unspecified) | 935
Cc1ccc2c(Nc3ccc(S(N)(=O)=O)cc3)c(C(=O)N3CCCCCC3)cnc2n1 | 595
CCOc1cc(=O)n2c(c1C(=O)Nc1ccc(Br)cc1F)CCCC2 | 790
COc1ccc(C(=O)N2CCC3(C2)C(=O)N(C)c2ccc(OC)cc23)c(OC)c1 (stereo unspecified) | 760
CN(C)c1ccc2c(c1)CN(C(=O)c1cnccn1)CCO2 | 566
O=C(Nc1ccc(F)cc1)C1CC(=O)N(CCc2c[nH]c3ccc(Cl)cc23)C1 (stereo unspecified) | 871
CCn1ccc2sc(C)c(C(=O)NCc3cccc(Cl)c3)c2c1=O | 926
CSc1ccc(Cc2nnc(NC(=O)c3nn(C)cc3C)o2)cc1 | 694
CC(=O)CCCCn1cnc2c1c(=O)n(C)c(=O)n2C | 672
Cc1ccc(NC(=O)C2CC(=O)N(CCc3c[nH]c4ccc(Cl)cc34)C2)cc1 (stereo unspecified) | 884
Cn1nc(C(=O)Nc2cccnc2)ccc1=O | 493

SMILES | RP-LC retention time [s]
COc1ccc(N2CCN(C(=O)C3CCCN(c4cc(=O)n(C)c(=O)n4C)C3)CC2)cc1 (stereo unspecified) | 696
Cc1ccc2c(c1)N(Cc1nc(-c3ccc(Cl)cc3)no1)C(=O)CO2 | 1130
COC(=O)Nc1ccc(S(=O)(=O)NCc2ccc(C)cc2)cc1 | 788
COc1cc(-c2ccc(F)cc2)nc2ccc(NS(=O)(=O)c3ccc(C#N)cc3)cc12 | 784
CCn1c(=O)sc2cc(S(=O)(=O)N3CCC(C(=O)N4CCc5ccccc5C4)CC3)ccc21 | 944
COc1ccc(-c2nc3ncccn3c2Nc2ccc(C)cc2C)cc1 | 800
Cc1cc(Cl)ccc1S(=O)(=O)N1CCC(OC2CCN(CC3CC3)C2=O)CC1 (stereo unspecified) | 975
Cc1nnc(-c2nnc(NC(C)C)c3ccccc23)o1 | 602
Cc1oc(-c2[nH]ncc2C(=O)N2CCCC2)cc1S(=O)(=O)NCc1ccccc1Cl | 715
COc1ccc(Nc2nc(N)nc(CSc3nnc4sc5ccccc5n34)n2)cc1 | 692
Cc1ccc(CN2CCC(c3nc(-c4cnccn4)n[nH]3)CC2)s1 | 570
CCNC(=O)N1CCCC1c1cc(C)no1 (stereo unspecified) | 615
Cc1ccc(-c2cc(C(=O)N3CCN(C)CC3)n(C)c2)cc1 | 644
Cc1ccc(-c2nnc(-c3ccc(Br)cc3)o2)cc1S(=O)(=O)N(C)C | 1090
COCc1c(C(=O)O)nnn1-c1ccc(C(F)(F)F)cc1 | 775
CC(C)CN1CCn2cc(S(=O)(=O)Nc3ccc(F)cc3)cc2C1=O | 1020
CCc1ccc(NC(=O)C2CCN(S(=O)(=O)c3cc(C(=O)N4CCCC4)cs3)CC2)cc1 | 922
Cc1nnc2cc(N3CCN(C(=O)Nc4cccc(Br)c4)CC3)cnn12 | 562
CC1CCc2cc(F)ccc2N1C(=O)C12CCC(C1)C(C)(C)C2=O (stereo unspecified) | 1020
CSc1nc(N)c(C(=O)NC2CCCCC2)s1 | 878

SMILES | RP-LC retention time [s]
O=c1ccc(N2CCCN(S(=O)(=O)c3ccc(F)cc3)CC2)nn1-c1ccc(Cl)cc1 | 926
Cc1nnc(C2CCCN(C(=O)c3ccc4nsnc4c3)C2)s1 (stereo unspecified) | 651
CCCN1C(=O)c2c(C(=O)NCc3ccc(C)cc3)ncn2CC1(C)C(=O)NC1CCCC1 (stereo unspecified) | 848
Cc1nc(-c2ccc(C(=O)N3CCC(C)CC3)cc2)no1 | 840
O=C(CN1CC=C(c2cnn(-c3ccccc3)c2)CC1)N1CCC(N2CCCCC2)CC1 | 573
Cc1cccc(C2CCCN2C(=O)c2nn(C)cc2Cl)c1 (stereo unspecified) | 849
COC(=O)c1cn(CC(=O)Nc2ccc(Br)cc2F)c2nc(C)ccc2c1=O | 775
CCn1cnc2c1CN(S(=O)(=O)c1ccc(C#N)cc1)CC2 | 616
CCCN1C(=O)c2ccccc2C(C(=O)NC2CC2)C1c1cc(OC)c(OC)c(OC)c1 (stereo unspecified) | 696
Cn1cc(CN2CCC(C(=O)NCCCN3CCc4ccccc4C3)CC2)c2cc(Cl)ccc21 | 878
Cn1nc(C(=O)N2CCCCC2)c2c1CCN(C(=O)CCC(=O)NCCN1CCCC1)C2 | 578
Cc1cn(C)c(CC(=O)N2CCc3ccccc32)c1C(=O)O | 742
CCCCOc1ccc(C(=O)Oc2coc(CSc3nncn3C)cc2=O)cc1 | 739
O=C(Cn1c(CN2CCOCC2)nc2ccccc21)N1CCCC1 | 579
CCC(=O)NCc1nc2c(n1CC)CN(S(=O)(=O)c1cc(C)ccc1C)CC2 | 590
CC(C)(C)NC(=O)N1CCC(CNC(=O)C(=O)Nc2cccc(N3CCCC3=O)c2)CC1 | 683
O=C(c1ccccc1F)N1CCC2(CC1)N=C(c1ccc(Cl)cc1)NO2 | 876
O=C(NC1CCCCC1)N1CCN(CCn2c(-c3ccncc3)nc3cccnc32)CC1 | 585
CN(C)S(=O)(=O)N1CC[C@@H]2C(=O)NCCCCCCN(Cc3ccncc3)[C@@H]2C1 | 603
O=C(C1=NNc2ccc(Cl)cc2S1(=O)=O)N1CCOCC1 | 663

Further lines, results first:

RP-LC retention time [s] | SMILES
898 | CCc1cccc(NC(=O)Cn2c(=O)nc(N3CCC(C)CC3)c3ccccc32)c1
658 | O=C(COc1ccccc1)N1CCC(CNS(=O)(=O)c2cccnc2)CC1
615 | COc1ccccc1N1C(=O)C2ON(c3ccccc3)C(c3cccc([N+](=O)[O-])c3)C2C1=O (stereo unspecified)
648 | CCN(CCNC(=O)CCc1cc2cc(C)ccc2[nH]c1=O)Cc1ccccc1
593 | Cn1cc(CCNC(=O)NCc2ccco2)c2cccnc21
708 | O=C1c2oc3ccccc3c(=O)c2C(c2cccnc2)N1c1nccs1 (stereo unspecified)
720 | CCCC(=O)N1CCc2c([nH]c3ccccc23)C1c1ccc(OC)cc1 (stereo unspecified)
1050 | O=C(Nc1cnc(-c2ccccc2)nc1)c1ccc(Cl)cc1
787 | O=C(NCc1ccc2c(c1)OCO2)c1nc2ccccn2c1-c1ccsc1
693 | COC(=O)c1ccc2c(=O)n(-c3ccccc3)c(N3CCC(C(N)=O)CC3)nc2c1
932 | COCc1nc(-c2ccc(OC3CCN(C(=O)C4(c5ccccc5)CC4)C3)cc2)no1 (stereo unspecified)
667 | COC(=O)c1cccc(NC(=O)Nc2c(-c3cccnc3)[nH]c3ccccc23)c1
893 | O=C(O)CCCC(=O)Nc1nc(-c2ccccc2)c(-c2ccccc2)s1
753 | Cc1ccc2c(=O)c(C(=O)N3CCCCC3)cn(CC(=O)NCc3ccccc3)c2n1
764 | Cc1nnc(N2CCCC(C(=O)NCc3ccc(OC(C)C)cc3)C2)c2nn(-c3ccccc3)c(C)c12 (stereo unspecified)
929 | Cc1cccc(-c2noc(Cn3ccn(-c4ccc(Cl)cc4)c(=O)c3=O)n2)c1

RP-LC retention time [s] | SMILES
787 | CCCn1cnc2cc(-c3noc(COc4ccc(F)cc4)n3)ccc21
1210 | Cc1nc2cc(-c3noc(-c4ccc(C)c(F)c4)n3)ccc2o1
1020 | Cc1cccc(Oc2nccnc2N2CCC(C(=O)NC(C)c3ccccc3)CC2)c1 (stereo unspecified)
803 | O=C(Cn1cnc(-c2noc(-c3ccccc3)n2)c1)NCc1ccccc1
843 | O=C(NCC1CC1)c1cn(-c2ccc(-c3nc(C4CC4)no3)cn2)cn1
985 | Cc1ccc(-n2c(=O)c3sccc3n(Cc3nc(-c4ccccc4)no3)c2=O)cc1
599 | c1cc(-c2nc(-c3ccc4c(c3)nnn4CCN3CCCCC3)no2)ccn1
780 | Cc1ccc2nc(-c3ccccc3Cl)c(Nc3ccc(Cl)cc3)n2c1
805 | Cc1ccc(F)c(NC(=O)Cn2cc(-c3nnc(C)o3)ccc2=O)c1
1040 | CCc1cccc(NC(=O)c2sc(-c3cn(C)c4ncccc34)nc2C)c1
572 | N#Cc1ccccc1NC(=O)C(=O)NCc1ccccn1
714 | Cc1ccc(-c2nc3ncccn3c2Nc2ccccc2)cc1
954 | CCCNC(=O)c1ccccc1OCc1nc(-c2ccccc2)no1
796 | CC1=NN(c2nc3ccccc3[nH]2)C(=O)C1Cc1ccccc1 (stereo unspecified)
920 | O=C(COc1ccc(Cl)cc1Cl)NCc1ccsc1
